Measured values taken from patent publication US5908828A, “Synthetic peptide derivatives and the salts thereof” (Hoechst Japan Limited, priority 1994, dated 1999).
Bridge positions count the residues as written; N and C are the ends. Ends that are not written are not given here. I, II: the chains in the order shown.

Test system: ALPase activity in MC3T3-E1 cells promoted by rh-BMP-2
Experiment: Assay of BMP inhibiting activity (BMP-2 antagonist-like activity): ALPase activity in cultured MC3T3-E1 cells
Assay type: cell-based, mouse
Conditions: for ALPase activity: MC3T3-E1 cells, 2 days
Experimental: BMP-2 antagonist-like activity of the present synthetic peptide derivatives was assayed by way of cultured MC3T3-E1 cells which were established from mouse calvaria having osteoblast-like property, by Kodama et al. (Kodama, H. et al. (1981) Jpn. J Oral. Biol., vol.23, p.899). The cultured MC3T3-E1 cells were prepared according to Takuwa et al. (Takuwa, Y. et al., (1991) Biochem.
Biophys. Res. Comuni., vol. […] ALPase is often used as an indicator enzyme for differentiation and maturity of osteoblasts and chondrocytes (Pfeilschifter, J., et al., Endocrinology (1987), vol. 121, p212-218; Rodan, G. A., et al., calcium regulating hormones and bone metabolism, Elsevir Science Publishers B.V., (1992), p 183-196).

Substance: synthetic peptide derivative: Fragment P1 (SEQ ID NO:1, N-terminal acetyl-Cys) joined to Fragment P2 (SEQ ID NO:2) through a 4-(N-maleimidomethyl)cyclohexane-1-carbonyl linker (chain 1 {CH2CO}-CDFSDVGWNDWIVAPPGY; chain 2 AIVQTLVNSVNSKIPKA; thioether I:N-II:N via 4‑(N-maleimidomethyl)cyclohexane‑1‑carbonyl; not fully specified (N-terminus, C-terminus, bridges))
- inhibition of rh-BMP-2-promoted ALPase activity in MC3T3-E1 cells (2×10^-9 to 2×10^-6 M, result in words): inhibited ALPase activity in MC3T3-E1 cells which were promoted by rh-BMP-2 with 2×10^-9 to 2×10^-6 M dose dependently
- ALPase activity (rh-BMP-2 5 ng/ml + synthetic peptide derivative 2 × 10^-7 M, n = 4): 302 ± 54 pmol/min
- ALPase activity (rh-BMP-2 5 ng/ml + synthetic peptide derivative 2 × 10^-8 M, n = 4): 486 ± 36 pmol/min
- ALPase activity (rh-BMP-2 5 ng/ml + synthetic peptide derivative 2 × 10^-9 M, n = 4): 632 ± 71 pmol/min
- ALPase activity (rh-BMP-2 5 ng/ml + synthetic peptide derivative 2 × 10^-10 M, n = 4): 876 ± 120 pmol/min
- ALPase activity (rh-BMP-2 (b ng/ml) + synthetic peptide derivative 2 × 10^-6 M, n = 1): 269 pmol/min
